Assay [1] deals with PTL-1 (DNA, aptamer) GACGACGGCCAAGCTAACGGCTGCTAAGCATGTGGAGTCGTC
Description: ThT fluorescence displacement. The following applies: 150 mM NaCl, 5 mM MgCl2 (main text; supplement: 2.0 mM MgCl2); 10 mM MES (supplement: 20 mM), pH 6.0; ThT displaced; tested at 200 μM.

The test system is the same in assay [2]. In words: ThT fluorescence. The conditions noted are these: 150 mM NaCl, 5 mM MgCl2 (main text; supplement: 2.0 mM MgCl2); 10 mM MES (supplement: 20 mM), pH 6.0; 1.0 μM aptamer, 2.0 μM ThT; described as non-specific binding.
In assay [3] the test system is PTL-1c (DNA, aptamer) GACGACGGCCAAGAATCCGGCTGCTAAGCATGTGGAGTCGTC
In words: ITC. The following applies: 150 mM NaCl, 5 mM MgCl2 (main text; supplement: 2.0 mM MgCl2); 10 mM MES (supplement: 20 mM), pH 6.0, 25 °C; typically 1.0 mM PTL in syringe.

Assay [4] relates to PTL-1 (DNA, aptamer) GACGACGGCCAAGCTAACGGCTGCTAAGCATGTGGAGTCGTC
In words: ITC. The conditions noted are these: 150 mM NaCl, 5 mM MgCl2 (main text; supplement: 2.0 mM MgCl2); 10 mM MES (supplement: 20 mM), pH 6.0, 25 °C; 20 μM aptamer.

Assay [5] relates to PTL-1b (DNA, aptamer) GACGACGGCGAAGCTAACGGCTGCTAAGCATGTCGAGTCGTC
Description: ITC. The conditions noted are these: 150 mM NaCl, 5 mM MgCl2 (main text; supplement: 2.0 mM MgCl2); 10 mM MES (supplement: 20 mM), pH 6.0, 25 °C; typically 1.0 mM PTL in syringe.

Assay [6] concerns PTL-1 (DNA, aptamer) GACGACGGCCAAGCTAACGGCTGCTAAGCATGTGGAGTCGTC
In words: ThT fluorescence displacement titration. The conditions noted are these: 150 mM NaCl, 5 mM MgCl2 (main text; supplement: 2.0 mM MgCl2), 10 mM MES (supplement: 20 mM), pH 6.0, ThT 2.0 μM displaced, 1.0 μM aptamer.

Assay [7] concerns PTL-1a (DNA, aptamer) GACGACTCCAAGAATCCGGCTGCTAAGCATGTGGAGTCGTC
Description: ITC. The conditions noted are these: 150 mM NaCl, 5 mM MgCl2 (main text; supplement: 2.0 mM MgCl2); 10 mM MES (supplement: 20 mM), pH 6.0, 25 °C; typically 1.0 mM PTL in syringe.

On to `C=C1[C@@H](O)[C@@H]2O[C@]3(CC[C@H](/C=C/[C@@H](C)[C@@H]4CC(C)=C[C@@]5(O[C@H](C[C@@](C)(O)C(=O)O)CC[C@H]5O)O4)O3)CC[C@H]2O[C@@H]1[C@@H](O)C[C@H](C)[C@H]1O[C@@]2(CCCCO2)CC[C@H]1C`, for which the binding entry in assay [1] is given as “no”. Same read-out and setting: then `CC1(C)S[C@@H]2[C@H](NC(=O)Cc3ccccc3)C(=O)N2[C@H]1C(=O)O`, with “no”; and `CC1(C)S[C@@H]2[C@H](NC(=O)[C@H](N)c3ccccc3)C(=O)N2[C@H]1C(=O)O`, with “no”; and `CCCC[C@@H](C)[C@@H](OC(=O)C[C@@H](CC(=O)O)C(=O)O)[C@H](C[C@@H](C)C[C@H](O)CCCC[C@@H](O)C[C@H](O)[C@H](C)N)OC(=O)C[C@@H](CC(=O)O)C(=O)O`, with “no”. Take `COc1cc(NS(=O)(=O)c2ccc(N)cc2)nc(OC)n1`: the binding entry in assay [1] is on record as “no”.

Turning to `CS(=O)(=O)c1ccc([C@@H](O)[C@@H](CO)NC(=O)C(Cl)Cl)cc1`, in assay [1], the binding result is on record as “no”. Same read-out and setting: then `C[C@@H]1C[C@H]2[C@@H]3CCC4=CC(=O)C=C[C@]4(C)[C@@]3(F)[C@@H](O)C[C@]2(C)[C@@]1(O)C(=O)CO`, with “no”; and `C[C@@H]1Cc2c(Cl)cc(C(=O)N[C@@H](Cc3ccccc3)C(=O)O)c(O)c2C(=O)O1`, with “no”; and `C[C@H]1CCCC(=O)CCC/C=C/c2cc(O)cc(O)c2C(=O)O1`, with “no”. Turning to `Cc1ccc2c(c1)sc(-c1ccc(N(C)C)cc1)[n+]2C`, the binding entry in assay [2] is reported as “yes”. On to `Cc1ncc([N+](=O)[O-])n1CCO`, for which the binding result in assay [1] is recorded as “no”. Still for that read-out and setting: then `NC(=O)N1c2ccccc2C=Cc2ccccc21`, with “no”; and `Nc1ccc(S(=O)(=O)Nc2cnc3ccccc3n2)cc1`, with “no”; and `O=C(N[C@H](CO)[C@H](O)c1ccc([N+](=O)[O-])cc1)C(Cl)Cl`, with “no”.

In the case of `O=C1C=C2C(=CCOC2O)O1` (stereo not shown), the binding entry in assay [3], in assay [5] and in assay [7] was “no” in each case. Further, in assay [4], the Kd is 12.5 µM. Besides, the “apparent Kd” value in assay [6] is 18.4 µM.

A word on the Kd: it is the constant that tells how readily two partners part at equilibrium. Read a low Kd as higher affinity. The term apparent Kd denotes the concentration giving half-maximal binding under the conditions of the assay.

The record behind these values is paper PMC12745320 (2025).
